This assay concerns the target GCN2 (Homo sapiens, UniProt Q9P2K8). Nature of the assay: GCN2 enzymatic endpoint assay: phosphorylation of GFP-eIF2α measured by TR-FRET (Lanthascreen). Type of assay: biochemical. A digest of the protocol: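 Read-out is the TR-FRET ratio of acceptor signal at 520 nm to terbium donor at 495 nm, rising with antibody binding to phosphorylated GFP-eIF2α. Endpoint format: 2 μM ATP, 80 nM substrate, 90 minutes at room temperature, EDTA stop.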
On the technique in general: TR-FRET usually uses a lanthanide donor and a delayed reading to cut background.

[1] abbreviates: tested as described in Example 77, compound and/or hydrochloride, dihydrochloride or trifluoroacetic acid salt, read-out: IC 50 Activity.
Where [2] appears, read: GCN2 biochemical IC50, 4 nM GCN2, 2 μM ATP, 80 nM GFP-eIF2α, 90 min RT, read-out: GCN2 activity.

The source of these data is patent US11046699B2, “Pyrazolo-pyrimidin-amino-cycloalkyl compounds and their therapeutic uses” (RAPT THERAPEUTICS, INC., priority 2018, dated 2021).

SMILES strings stand for the structures. Structures can show the parent of a compound that is named as a salt. Where two headings read alike, the source gives them in different places.

GCN2, sequence (Q9P2K8 whole entry): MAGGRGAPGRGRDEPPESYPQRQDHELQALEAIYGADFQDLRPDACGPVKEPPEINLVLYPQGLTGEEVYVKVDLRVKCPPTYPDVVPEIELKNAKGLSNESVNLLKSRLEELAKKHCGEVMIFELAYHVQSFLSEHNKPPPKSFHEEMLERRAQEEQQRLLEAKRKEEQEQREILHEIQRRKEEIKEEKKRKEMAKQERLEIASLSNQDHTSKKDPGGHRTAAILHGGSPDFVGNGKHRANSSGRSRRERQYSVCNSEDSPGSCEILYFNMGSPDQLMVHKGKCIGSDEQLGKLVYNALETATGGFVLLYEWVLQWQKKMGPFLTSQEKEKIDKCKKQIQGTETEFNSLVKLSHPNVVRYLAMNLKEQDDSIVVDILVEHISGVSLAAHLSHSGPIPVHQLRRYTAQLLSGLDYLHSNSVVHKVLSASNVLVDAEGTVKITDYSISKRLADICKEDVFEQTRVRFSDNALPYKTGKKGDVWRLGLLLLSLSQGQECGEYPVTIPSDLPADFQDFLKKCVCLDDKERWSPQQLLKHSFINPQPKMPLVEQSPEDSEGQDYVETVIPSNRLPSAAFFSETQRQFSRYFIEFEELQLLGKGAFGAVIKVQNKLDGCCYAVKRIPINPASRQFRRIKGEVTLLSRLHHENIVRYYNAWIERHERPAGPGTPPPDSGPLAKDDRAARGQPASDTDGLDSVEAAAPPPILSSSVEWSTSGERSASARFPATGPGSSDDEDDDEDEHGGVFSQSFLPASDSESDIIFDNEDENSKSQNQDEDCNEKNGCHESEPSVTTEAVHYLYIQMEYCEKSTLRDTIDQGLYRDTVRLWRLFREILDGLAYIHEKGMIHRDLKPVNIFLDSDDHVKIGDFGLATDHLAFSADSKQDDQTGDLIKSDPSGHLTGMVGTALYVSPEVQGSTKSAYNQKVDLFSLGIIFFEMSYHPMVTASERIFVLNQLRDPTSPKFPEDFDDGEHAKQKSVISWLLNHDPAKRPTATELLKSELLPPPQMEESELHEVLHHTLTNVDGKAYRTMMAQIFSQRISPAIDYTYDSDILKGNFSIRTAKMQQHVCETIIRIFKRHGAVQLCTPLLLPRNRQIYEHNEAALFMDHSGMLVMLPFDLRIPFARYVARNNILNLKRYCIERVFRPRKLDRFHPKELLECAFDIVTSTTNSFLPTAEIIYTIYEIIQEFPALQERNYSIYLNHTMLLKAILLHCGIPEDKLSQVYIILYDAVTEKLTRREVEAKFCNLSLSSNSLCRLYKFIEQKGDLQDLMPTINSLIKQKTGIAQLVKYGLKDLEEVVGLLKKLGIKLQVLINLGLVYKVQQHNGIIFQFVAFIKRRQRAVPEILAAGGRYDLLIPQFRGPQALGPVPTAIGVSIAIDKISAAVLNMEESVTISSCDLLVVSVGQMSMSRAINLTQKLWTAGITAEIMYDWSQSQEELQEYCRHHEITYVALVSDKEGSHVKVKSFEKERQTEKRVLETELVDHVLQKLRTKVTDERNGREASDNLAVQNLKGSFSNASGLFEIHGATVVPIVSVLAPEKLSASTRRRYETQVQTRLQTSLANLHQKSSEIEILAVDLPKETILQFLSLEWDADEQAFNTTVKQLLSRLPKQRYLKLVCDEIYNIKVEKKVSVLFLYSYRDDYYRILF

Regarding `C=CC(=O)NCCc1cc(-n2nc(Br)c3cnc(N[C@@H]4CC[C@@](C)(C(=O)NC)C4)nc32)cc2cccnc12` [(1R,3R)-3-[[3-bromo-1-[8-[2-(prop-2-enoylamino)ethyl]-6-quinolyl]pyrazolo [3,4-d]pyrimidin-6-yl]amino]-N,1-dimethyl-cyclopentanecarboxamide], the IC50 under setting [1] is 0.025 to 0.2 µM.
Regarding `O=C(N[C@@H]1CCNC[C@@H]1F)[C@@H]1CC[C@@H](Nc2ncc3c(Br)nn(-c4cc(F)c5ncccc5c4)c3n2)C1` [(1R,3R)-3-((3-bromo-1-(8-fluoroquinolin-6-yl)-1H-pyrazolo[3,4-d]pyrimidin-6-yl)amino)-N-((3S,4R)-3-fluoropiperidin-4-yl)cyclo-pentane-1-carboxamide], the IC50 under setting [1] is < 0.025 µM.
The same measure, in the same setting: to `COCC(C)(C)NC(=O)[C@@H]1CC[C@@H](Nc2ncc3c(Br)nn(-c4ccc5ncccc5c4)c3n2)C1` [(1R,3R)-3-((3-bromo-1-(quinolin-6-yl)-1H-pyrazolo[3,4-d]pyrimidin-6-yl)amino)-N-(1-methoxy-2-methylpropan-2-yl)cyclopentane-1-carboxamide] belongs 0.2 to 0.5 µM; to `CNS(=O)(=O)C1CC[C@@H](Nc2ncc3c(Br)nn(-c4ccc(-c5nnc(C)s5)c(C#N)c4)c3n2)C1` (stereo partly drawn) [(3R)-3-[[3-bromo-1-[3-cyano-4-(5-methyl-1,3,4-thiadiazol-2-yl)phenyl]pyrazolo[3,4-d]pyrimidin-6-yl]amino]-N-methyl-cyclopentanesulfonamide], 0.025 to 0.2 µM; to `CNC(=O)[C@]1(C)CC[C@@H](Nc2ncc3c(Br)nn(-c4ccc(-c5ncco5)c(NC(=O)C5CNC5)c4)c3n2)C1` [N-[5-[3-bromo-6-[[(1R,3R)-3-methyl-3-(methylcarbamoyl)cyclopentyl]amino]pyrazolo[3,4-d]pyrimidin-1-yl]-2-oxazol-2-yl-phenyl]azetidine-3-carboxamide], < 0.025 µM.
Turning to `CN(C)C(=O)[C@]1(C)CC[C@@H](Nc2ncc3c(Br)nn(-c4cc(CCN)c5ncccc5c4)c3n2)C1` [Example 30, (1R,3R)-3-((1-(8-(2-aminoethyl)quinolin-6-yl)-3-bromo-1H-pyrazolo[3,4-d]pyrimidin-6-yl)amino)-N,N,1-trimethylcyclopentane-1-carboxamide; 2,2,2-trifluoroacetic acid], the IC50 under setting [2] was < 0.025 µM.
In the case of `CNC(=O)[C@]1(C)CC[C@@H](Nc2ncc3c(Br)nn(-c4ccc5ncccc5c4)c3n2)C1` (single isomer, unassigned) [Example 18], under setting [2], the IC50 was in the range of 0.025 to 0.2 µM.
On to `CNC(=O)[C@]1(C)CC[C@@H](Nc2ncc3c(Br)nn(-c4ccc5c(c4)CN(S(=O)(=O)C4COC4)C5)c3n2)C1` [(1R,3R)-3-[[3-bromo-1-[2-(oxetan-3-ylsulfonyl)isoindolin-5-yl]pyrazolo[3,4-d]pyrimidin-6-yl]amino]-N,1-dimethyl-cyclopentanecarboxamide], for which, under setting [1], the IC50 was in the range of 0.025 to 0.2 µM.
`CNC(=O)[C@]1(C)CC[C@@H](Nc2ncc3c(Br)nn(-c4cc([C@H](C)N)c5nccnc5c4)c3n2)C1` [(1R,3R)-3-[[1-[8-[(1S)-1-aminoethyl]quinoxalin-6-yl]-3-bromo-pyrazolo [3,4-d]pyrimidin-6-yl]amino]-N,1-dimethyl-cyclopentanecarboxamide]: under setting [1], the IC50 is 0.025 to 0.2 µM.
The same measure, in the same setting: to `Cc1nnc(-c2ccc(-n3nc(Br)c4cnc(N[C@@H]5CC[C@@H](NC(=O)[C@H]6CCCCN6)C5)nc43)cc2)s1` belongs 0.025 to 0.2 µM.
The same measure, in the same setting: under `CC(C)NC(=O)[C@]1(C)CC[C@@H](Nc2ncc3c(Br)nn(-c4cc(F)c5ncccc5c4)c3n2)C1` [(1R,3R)-3-[[3-bromo-1-(8-fluoro-6-quinolyl)pyrazolo[3,4-d]pyrimidin-6-yl]amino]-N-isopropyl-1-methyl-cyclopentanecarboxamide] stands < 0.025 µM.
On the same count and under the same terms, to `CNC(=O)[C@]1(C)CC[C@@H](Nc2ncc3c(Br)nn(-c4ccc5c(c4)CCNC5=O)c3n2)C1` [(1R,3R)-3-[[3-bromo-1-(1-oxo-3,4-dihydro-2H-isoquinolin-6-yl)pyrazolo[3,4-d]pyrimidin-6-yl]amino]-N,1-dimethyl-cyclopentanecarboxamide] belongs 0.025 to 0.2 µM.
Turning to `CNC(=O)C1(C(C)C#N)CC[C@@H](Nc2ncc3c(Br)nn(-c4ccc(-c5nnc(C)s5)cc4)c3n2)C1` (stereo partly shown), the IC50 under setting [1] was 0.025 to 0.2 µM.
On to `CNC(=O)[C@]1(C)CC[C@@H](Nc2ncc3c(Br)nn(-c4ccc(-c5nnc(C)s5)c(OCC#N)c4)c3n2)C1` [(1R,3R)-3-[[3-bromo-1-[3-(cyanomethoxy)-4-(5-methyl-1,3,4-thiadiazol-2-yl)phenyl]pyrazolo[3,4-d]pyrimidin-6-yl]amino]-N,1-dimethyl-cyclopentanecarboxamide], for which the IC50 under setting [1] lay in the range of 0.025 to 0.2 µM.
As to `CNC(=O)[C@]1(C)CC[C@@H](Nc2ncc3c(Br)nn(-c4ccc(-c5nnc(C)s5)c(CCS(C)(=O)=O)c4)c3n2)C1` [(1R,3R)-3-[[3-bromo-1-[3-(2-methyl-sulfonylethyl)-4-(5-methyl-1,3,4-thiadiazol-2-yl)phenyl]pyrazolo[3,4-d]pyrimidin-6-yl]amino]-N,1-dimethyl-cyclopentanecarboxamide], under setting [1], the IC50 was in the range of 0.025 to 0.2 µM.
Turning to `CNC(=O)C1(CC(F)(F)F)CC[C@@H](Nc2ncc3c(Br)nn(-c4ccc(-c5nnc(C)s5)c(CCC#N)c4)c3n2)C1` (stereo partly shown), under setting [1], the IC50 was in the range of 0.025 to 0.2 µM.
For the compound `COCCNC(=O)[C@@H]1CC[C@@H](Nc2ncc3c(Br)nn(-c4ccc5nc(C)ccc5c4)c3n2)C1` [(1R,3R)-3-((3-bromo-1-(2-methylquinolin-6-yl)-1H-pyrazolo[3,4-d]pyrimidin-6-yl)amino)-N-(2-methoxyethyl)cyclopentane-1-carboxamide], under setting [1], the IC50 fell in the range of 0.2 to 0.5 µM.
The same measure, in the same setting: under `CNC(=O)[C@]1(C)CC[C@@H](Nc2ncc3c(Br)nn(-c4cc(F)c5nc(C)ccc5c4)c3n2)C1` [(1R,3R)-3-[[3-bromo-1-(8-fluoro-2-methyl-6-quinolyl)pyrazolo[3,4-d]pyrimidin-6-yl]amino]-N,1-dimethyl-cyclopentane-carboxamide] stands < 0.025 µM.
The same measure, in the same setting: under `O=C(NCc1nnn[nH]1)[C@@H]1CC[C@@H](Nc2ncc3c(Br)nn(-c4cc(F)c5ncccc5c4)c3n2)C1` [(1R,3R)-N-((1H-tetrazol-5-yl)methyl)-3-((3-bromo-1-(8-fluoroquinolin-6-yl)-1H-pyrazolo [3,4-d]pyrimidin-6-yl)amino)cyclopentane-1-carboxamide] stands 0.025 to 0.2 µM.
On to `CNC(=O)[C@]1(C)CCC(Nc2ncc3c(Br)nn(-c4ccc5c(=O)[nH]ccc5c4)c3n2)C1` (stereo partly drawn) [(1R)-3-[[3-bromo-1-(1-oxo-2H-isoquinolin-6-yl)pyrazolo[3,4-d]pyrimidin-6-yl]amino]-N,1-dimethyl-cyclopentanecarboxamide], for which the IC50 under setting [1] lay within 0.025 to 0.2 µM.
Take `CNC(=O)[C@]1(C)CC[C@@H](Nc2ncc3c(Br)nn(-c4cc(CNCCOC)c5ncccc5c4)c3n2)C1` [(1R,3R)-3-[[3-bromo-1-[8-[(2-methoxy-ethylamino)methyl]-6-quinolyl]pyrazolo [3,4-d]pyrimidin-6-yl]amino]-N,1-dimethyl-cyclopentanecarboxamide]: the IC50 under setting [1] is 0.025 to 0.2 µM.
Still for that read-out and setting: to `CNC(=O)[C@]1(C)CC[C@@H](Nc2ncc3c(Br)nn(-c4ccc(F)c(CCN)c4)c3n2)C1` [(1R,3R)-3-[[1-[3-(2-aminoethyl)-4-fluoro-phenyl]-3-bromo-pyrazolo[3,4-d]pyrimidin-6-yl]amino]-N,1-dimethyl-cyclopentane-carboxamide] belongs 0.025 to 0.2 µM; to `CNC(=O)[C@@]1(COC)CC[C@@H](Nc2ncc3c(I)nn(-c4cc(F)c5ncccc5c4)c3n2)C1` [(1S,3R)-3-[[1-(8-fluoro-6-quinolyl)-3-iodo-pyrazolo[3,4-d]pyrimidin-6-yl]amino]-1-(methoxymethyl)-N-methyl-cyclopentane-carboxamide], 0.025 to 0.2 µM.
Consider `Fc1cc(-n2nc(Br)c3cnc(NC4CCOC4)nc32)cc2cccnc12` (stereo not shown) [3-bromo-1-(8-fluoro-6-quinolyl)-N-tetrahydrofuran-3-yl-pyrazolo[3,4-d] pyrimidin-6-amine], for which the IC50 under setting [1] lay in the range of 0.025 to 0.2 µM.
With `CC1(O)CC[C@@H](Nc2ncc3c(Br)nn(-c4cc(CCN)c5ncccc5c4)c3n2)C1` (stereo partly shown), the IC50 under setting [1] lay within 0.025 to 0.2 µM.
The same measure, in the same setting: to `CNC(=O)C1(C)CC[C@@H](Nc2ncc3c(Br)nn(-c4cc(CO)cc(OC)c4)c3n2)C1` (mixture of isomers) belongs 0.025 to 0.2 µM.
As for `Cc1nnc(-c2ccc(-n3nc(Br)c4cnc(N[C@@H]5CC[C@@](C)(O)C5)nc43)cc2C#N)s1` [Example 67, 5-(3-bromo-6-(((1R,3R)-3-hydroxy-3-methylcyclopentyl)amino)-1H-pyrazolo[3,4-d]pyrimidin-1-yl)-2-(5-methyl-1,3,4-thiadiazol-2-yl)benzonitrile], under setting [2], the IC50 was < 0.025 µM.
Still for that read-out and setting: to `O=C1NCC[C@]12CC[C@@H](Nc1ncc3c(Br)nn(-c4cc(F)c5ncccc5c4)c3n1)C2` [Example 48, (5S,7R)-7-((3-bromo-1-(8-fluoroquinolin-6-yl)-1H-pyrazolo[3,4-d]pyrimidin-6-yl)amino)-2-azaspiro[4.4]nonan-1-one hydrochloride] belongs 0.025 to 0.2 µM.
Take `CNC(=O)[C@]1(C)CCC(Nc2ncc3c(Br)nn(-c4cnc(-c5nnc(C)s5)c(F)c4)c3n2)C1` (stereo partly drawn) [(1R)-3-[[3-bromo-1-[5-fluoro-6-(5-methyl-1,3,4-thiadiazol-2-yl)-3-pyridyl]pyrazolo [3,4-d]pyrimidin-6-yl]amino]-N,1-dimethyl-cyclopentanecarboxamide]: the IC50 under setting [1] was 0.025 to 0.2 µM.
Take `CNC(=O)[C@]1(C)CC[C@@H](Nc2ncc3c(Br)nn(-c4ccc5ncc(OCCOC)cc5c4)c3n2)C1` [(1R,3R)-3-[[3-bromo-1-[3-(2-methoxy-ethoxy)-6-quinolyl]pyrazolo[3,4-d]pyrimidin-6-yl]amino]-N,1-dimethyl-cyclopentanecarboxamide]: the IC50 under setting [1] lay in the range of 0.025 to 0.2 µM.
As to `CNC(=O)[C@]1(C)CC[C@@H](Nc2ncc3c(Br)nn(-c4cnc5c(CCCN)cccc5c4)c3n2)C1` [(1R,3R)-3-[[1-[8-(3-aminopropyl)-3-quinolyl]-3-bromo-pyrazolo[3,4-d]pyrimidin-6-yl]amino]-N,1-dimethyl-cyclopentanecarboxamide], the IC50 under setting [1] fell in the range of 0.025 to 0.2 µM.
